Reference: patent publication US8440652B2, “MST1 kinase inhibitors and methods of their use” (Lexicon Pharmaceuticals, Inc., priority 2011, dated 2013)
Like-named read-outs stand apart in the source and are kept apart here.

Experiments:
[1] = system: rat EAE model; assay: Rat EAE disease model; format: in vivo
[2] = system: Con-A induced hepatitis model; assay: Con-A induced hepatitis model; format: in vivo, mouse
Procedure: This model was generally conducted as follows. C57Bl/6-Albino/129SvEv mice were injected intravenously (i/v) via the lateral tail vein with a single sublethal dose of Concanavalin A from Canavalia ensiformis (Jack bean, Type IV-S, lyophilized powder, aseptically processed; Sigma) administered at 10-16 mg/kg mouse body weight in a total volume of 0.1-0.3 ml of pyrogen-free PBS. The tail vein injections of mice restrained in a Plexiglas mouse restrainer were performed without anesthesia, using a 1 ml syringe with a 27 gauge needle. At six and 24 hr post-injection, blood samples were collected by retro-orbital bleeding. The animals were sacrificed and sera from the blood samples were analyzed for the presence of IL-12, TNF-α, MCP-1, IFN-γ, IL-10, and IL-6 using a mouse inflammation cytometric bead array (CBA) kit (BD Biosciences, Mountain View, Calif.), according to the manufacturer's instructions. Data were acquired with a FACSCalibur flow cytometer and analyzed with BD CBA Software (BD Biosciences). Biochemical markers of liver failure were assessed by measuring serum liver damage enzymes, aspartate aminotransferase (AST) and alanine aminotransferase (ALT), using a standard clinical biochemical analyzer. Livers of ConA-treated mice were sectioned and stained with H&E to evaluate the degree of T cell-mediated immune inflammation.

[3] = target: T1, MST1 (Homo sapiens, UniProt Q13043); assay: In vitro measurement of MST1 inhibition (Z′-Lyte kinase assay); format: biochemical
T1 sequence (Q13043 1-487): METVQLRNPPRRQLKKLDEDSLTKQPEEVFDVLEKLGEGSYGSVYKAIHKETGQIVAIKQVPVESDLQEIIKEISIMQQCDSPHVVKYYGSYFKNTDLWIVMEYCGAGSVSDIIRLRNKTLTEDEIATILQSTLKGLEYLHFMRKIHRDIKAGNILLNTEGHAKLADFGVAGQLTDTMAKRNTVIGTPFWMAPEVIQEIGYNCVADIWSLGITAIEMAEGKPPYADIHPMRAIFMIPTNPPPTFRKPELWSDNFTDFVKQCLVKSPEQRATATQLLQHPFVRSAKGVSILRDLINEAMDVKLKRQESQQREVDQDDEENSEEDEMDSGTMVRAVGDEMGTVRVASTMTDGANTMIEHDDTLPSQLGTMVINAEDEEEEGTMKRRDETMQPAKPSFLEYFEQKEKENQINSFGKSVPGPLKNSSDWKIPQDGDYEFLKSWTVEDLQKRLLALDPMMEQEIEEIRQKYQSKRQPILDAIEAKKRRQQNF

[4] = system: mouse CIA disease model; assay: Mouse CIA disease model; format: in vivo; conditions: mice, 10, 30, 100 mg/kg PO bid 21 days from Day 20 after immunization; FIG. 4
Procedure: Eight to 16 weeks old DBA/1 mice were immunized intradermally (i.d.) at several sites into the base of the tail with 100 μg of chicken type II collagen (CII; Sigma Chemical Co.) in Freund's complete adjuvant (CFA; Difco, Detroit, Mich.) containing 2.5 mg/ml M. tuberculosis, followed by a repeat booster i.d. injection of CII (100 μg emulsified in CFA) given 3 weeks after the primary immunization. Mice were monitored daily for signs of arthritis, and disease severity scores were assessed by a visual scoring of 0 to 4 according to the following scale: 0=no erythema and swelling; 1=erythema and mild swelling of the mid-foot or ankle joint; 2=erythema and mild swelling extending from the ankle to the mid-foot; 3=erythema and moderate swelling extending from the ankle to the metatarsal joints; 4=erythema and severe swelling of the ankle, foot, and digits. Total disease severity scores were recorded as a sum of visual scores for four limbs. In addition to visual scoring, paw thickness was measured with a micrometer caliper.

[5] = system: rat CIA disease model; assay: Rat CIA disease model; format: in vivo; conditions: rats, 10 and 25 mg/kg PO BID, 50 mg/kg QD from Day 11 after immunization; FIG. 5
Procedure: CIA was elicited in rats according to Rosloniec, E. F., et al., Curr Protoc Immunol Chapter 15: Unit 15, pp. 11-25. Here, Lewis rats (150-200 g, female; Charles River Laboratories, Wilmington, Mass.) were injected intradermally at the base of the tail with a total of 300 μl of a 1:1 emulsion of bovine type II collagen (CII; 150 μg total; Sigma-Aldrich) and incomplete Freund's adjuvant (IFA; 150 μl total; Sigma-Aldrich), followed by a repeat booster injection of the same emulsion 7 days after the primary immunization. Rats were monitored for signs of arthritis by clinical scoring (visual observation) of each rat paw, using the rating scale described above. The extent of swelling was calculated by subtracting the baseline values of the first measurement from the values of subsequent measurements.

[6] = system: mouse EAE model; assay: Mouse EAE disease model; format: in vivo; conditions: mice, subcutaneous dosing, 3 mg/kg, 10 mg/kg BID 12 days from Day 9 after MOG immunization; FIG. 9A
Procedure: Here, an adaptation of the method of Bettelli, et al., J. Immunol. 161:3299 (1998) was implemented. Eight to 12 weeks old C57Bl/6-Albino/129SvEv littermates were immunized subcutaneously with a total of 300 μg MOGp35-55 peptide ([…]) emulsified in complete Freund's adjuvant (CFA) containing 250 μg heat-inactivated Mycobacterium tuberculosis H37 Ra (Difco Laboratories). The antigen was divided equally across two injection sites in the abdominal flanks. Immediately following the injection of the emulsified antigen (day 0), each mouse received one intravenous injection of 500 ng of Pertussis toxin (List Biological Laboratories). Animal weights were recorded prior to the start of the experiment and monitored throughout the experiment, 2-3 times per week. Disease severity was scored on a scale as follows: 0=asymptomatic, no detectable sign of disease; 1=slight weakness of the tail/floppy tail and/or slumped hindquarters; 2=definite total paralysis of the tail; 3=mild waddle/distorted gait and total paralysis of the tail and/or mild impaired righting reflex; 4=heavy waddle with impaired control-weakness of hind limbs and/or impaired righting reflex; 5=paralysis of one of the hind limbs possibly with mild forelimb weakness; 6=paralysis of both hind limbs and/or moderate to severe forelimb weakness; 7=quadriplegia/paralysis of all limbs—hind and fore; 8=moribund/dead. […]

[7] = 1 μM ATP, read-out: IC50 (μM) 1 μM ATP
[8] = 50 μM ATP, read-out: IC50 (μM) 50 μM ATP

| SMILES | IC50 [3, 7] [µM] | IC50 [3, 8] [µM] | further results |
| --- | --- | --- | --- |
| N#CC1(c2ccc(-c3cnc(N)c(-c4ccc5c(c4)CCNC5=O)n3)cc2)CC1 [1-(4-(5-amino-6-(1-oxo-1,2,3,4-tetrahydroisoquinolin-6-yl)pyrazin-2-yl)phenyl)cyclopropanecarbonitrile] | < 0.05 | < 0.01 | severity of clinical score ([1]; rats, 0.3, 1, 3 or 10 mg/kg PO QD from Day 10 after immunization, FIG. 7A): dose-dependent reduction in severity of clinical score; TNF-α, IL-6, MCP-1, IFN-γ, ALT and AST ([2]; mice, 1, 3, 10, 30 mg/kg PO 16 h and 1 h before and 8 h after Con-A challenge, FIG. 8): clear effect |
| CN(C1CC1)S(=O)(=O)c1ccc(-c2cnc(N)c(-c3ccc4c(c3)CCNC4=O)c2)cc1 [4-(6-amino-5-(1-oxo-1,2,3,4-tetrahydroisoquinolin-6-yl)pyridin-3-yl)-N-cyclopropyl-N-methylbenzenesulfonamide] | < 0.01 | < 0.01 | severity of clinical score ([1]; rats, 10, 25 or 50 mg/kg PO BID from Day 9 after immunization, FIG. 3): dose-dependent reduction in severity of clinical score; cumulative arthritis score and change in ankle thickness [4]: clear benefit versus control; cumulative arthritis score and change in ankle thickness [5]: therapeutic effect; TNF-α, IL-6, MCP-1, IFN-γ, ALT and AST ([2]; mice, 10, 30, 100 mg/kg dosed 16 h and 1 h before and 8 h after Con-A challenge, FIG. 6): clear effect |
| CN(C1CC1)S(=O)(=O)c1ccc(-c2cnc(N)c(-c3ccc4c(c3)CCNC4=O)n2)cc1 [4-(5-amino-6-(1-oxo-1,2,3,4-tetrahydroisoquinolin-6-yl)pyrazin-2-yl)-N-cyclopropyl-N-methylbenzenesulfonamide] | < 0.01 | < 0.01 | clinical score [6]: clear dose-dependency in clinical score |
| CN(C1CC1)S(=O)(=O)c1ccc(-c2cnc(N)c(-c3ccc4c(c3)CCCNC4=O)n2)cc1 [4-(5-amino-6-(1-oxo-2,3,4,5-tetrahydro-1H-benzo[c]azepin-7-yl)pyrazin-2-yl)-N-cyclopropyl-N-methylbenzenesulfonamide] | < 0.01 | < 0.01 | – |
| CCCOc1ccc(-c2cnc(N)c(-c3ccc(C(N)=O)cc3)c2)cc1 [4-(2-amino-5-(4-propoxyphenyl)pyridin-3-yl)benzamide] | – | < 0.15 | – |
| Nc1ncc(-c2ccc(C(=O)NCC(F)(F)F)s2)cc1-c1ccc2c(c1)CCNC2=O [5-(6-amino-5-(1-oxo-1,2,3,4-tetrahydroisoquinolin-6-yl)pyridin-3-yl)-N-(2,2,2-trifluoroethyl)thiophene-2-carboxamide] | < 0.15 | < 0.05 | – |
| COCc1ccc(-c2cnc(N)c(C(=O)NC3CCCCC3)n2)cc1 [3-amino-N-cyclohexyl-6-(4-(methoxymethyl)phenyl)pyrazine-2-carboxamide] | – | < 0.15 | – |
| CN(C1CC1)S(=O)(=O)c1ccc(-c2cnc(N)c(-c3ccc4c(c3)OC[C@H](CO)NC4=O)c2)cc1 [(S)-4-(6-amino-5-(3-(hydroxymethyl)-5-oxo-2,3,4,5-tetrahydrobenzo[f][1,4]oxazepin-8-yl)pyridin-3-yl)-N-cyclopropyl-N-methylbenzenesulfonamide] | < 0.01 | < 0.01 | – |
| CN(C1CC1)S(=O)(=O)c1ccc(-c2cnc(N)c(-c3ccc4c(c3)CCNC4=O)n2)cc1F [4-(5-amino-6-(1-oxo-1,2,3,4-tetrahydroisoquinolin-6-yl)pyrazin-2-yl)-N-cyclopropyl-2-fluoro-N-methylbenzenesulfonamide] | < 0.01 | < 0.01 | – |
